We go through 13 molecules from ChEMBL document CHEMBL1759924, “Natural products-based insecticidal agents 9. Design, semisynthesis and insecticidal activity of 28-acyloxy derivatives of toosendanin against Mythimna separata Walker in vivo” (2011).

In assay [1] the test system is Mythimna separata. The experiment in a line: Insecticidal activity against Mythimna separata Walker assessed as mortality rate at 1 mg/mL after 10 days by leaf dipping method. It counts as functional.
The test system of assay [2] is Mythimna separata. The experiment in a line: Insecticidal activity against Mythimna separata Walker assessed as mortality rate at 1 mg/mL after 20 days by leaf dipping method. It counts as functional.
Assay [3] deals with Mythimna separata. As to the kind of experiment: Insecticidal activity against Mythimna separata Walker assessed as mortality rate at 1 mg/mL after 35 days by leaf dipping method. It counts as functional.
Assay [4] relates to Mythimna separata. As to the kind of experiment: Insecticidal activity against Mythimna separata assessed as malformed moths with imperfect wings at day 27. It counts as functional, organism-based.
The subject of assay [5] is Mythimna separata. As to the kind of experiment: Insecticidal activity against Mythimna separata Walker assessed as mortality at 1 mg/mL by leaf dipping method. To be noted: TDE = time-dependent effect. It counts as functional, organism-based.
Assay [6] relates to Mythimna separata. As to the kind of experiment: Insecticidal activity against Mythimna separata assessed as slim and wrinkled body during larval period upto 48 hrs. The format is functional, organism-based.
In assay [7] the test system is Mythimna separata. The experiment in a line: Insecticidal activity against Mythimna separata larvae assessed as malformed pupae during pupation period at day 19. The format is functional, organism-based.

The source made the active and inactive calls. No cut-off for these calls is given here.

For `CC(=O)O[C@@H]1C[C@H](O)[C@@]23CO[C@H](OC(=O)CCc4ccccc4)[C@]1(C)[C@@H]2C[C@@H](O)[C@]1(C)[C@@H]3C(=O)[C@H](OC(C)=O)[C@@]2(C)C(c3ccoc3)C[C@H]3O[C@@]312` (single isomer, unassigned), the Activity in the assay with Mythimna separata [1] was 20.7%; with Mythimna separata [2], 30.8%; in the assay with Mythimna separata [3], 53.9%; with Mythimna separata [5] it was “tde”. In addition, the result in the assay on Mythimna separata [4] was Active.
`COc1ccc(C(=O)O[C@H]2OC[C@@]34[C@H]5C(=O)[C@H](OC(C)=O)[C@@]6(C)C(c7ccoc7)C[C@H]7O[C@]76[C@]5(C)[C@H](O)C[C@H]3[C@]2(C)[C@H](OC(C)=O)C[C@@H]4O)cc1` (single isomer, unassigned): the Activity in the assay with Mythimna separata [1] is 20.7%; with Mythimna separata [2], 26.9%; in the assay with Mythimna separata [3], 42.3%; with Mythimna separata [5] it was “tde”.
On to `CCC(=O)O[C@H]1OC[C@@]23[C@H]4C(=O)[C@H](OC(C)=O)[C@@]5(C)C(c6ccoc6)C[C@H]6O[C@]65[C@]4(C)[C@H](O)C[C@H]2[C@]1(C)[C@H](OC(C)=O)C[C@@H]3O` (single isomer, unassigned), for which the Activity is 24.1% in the assay with Mythimna separata [1], 30.8% in the assay with Mythimna separata [2], 53.9% in the assay with Mythimna separata [3] and “tde” in the assay on Mythimna separata [5]. The outcome in the assay with Mythimna separata [6] was Active.
Regarding `CC(=O)O[C@@H]1C[C@H](O)[C@@]23CO[C@H](OC(=O)c4ccc(Cl)cc4)[C@]1(C)[C@@H]2C[C@@H](O)[C@]1(C)[C@@H]3C(=O)[C@H](OC(C)=O)[C@@]2(C)C(c3ccoc3)C[C@H]3O[C@@]312` (single isomer, unassigned), the Activity was 20.7% in the assay on Mythimna separata [1], 26.9% in the assay with Mythimna separata [2], 50% in the assay with Mythimna separata [3] and “tde” in the assay with Mythimna separata [5]. The outcome with Mythimna separata [6] and with Mythimna separata [7] was Active.
For `CCCC(=O)O[C@H]1OC[C@@]23[C@H]4C(=O)[C@H](OC(C)=O)[C@@]5(C)C(c6ccoc6)C[C@H]6O[C@]65[C@]4(C)[C@H](O)C[C@H]2[C@]1(C)[C@H](OC(C)=O)C[C@@H]3O` (single isomer, unassigned), the Activity in the assay on Mythimna separata [1] is 31%; with Mythimna separata [2], 42.3%; with Mythimna separata [3], 73.1%; with Mythimna separata [5], “tde”. Besides, the outcome in the assay with Mythimna separata [7] was Active.
Take `CC(=O)O[C@@H]1C[C@H](O)[C@@]23CO[C@@H](O)[C@]1(C)[C@@H]2C[C@@H](O)[C@]1(C)[C@@H]3C(=O)[C@H](OC(C)=O)[C@@]2(C)[C@H](c3ccoc3)C[C@H]3O[C@]321` [TOOSENDANIN]: the Activity is 24.1% in the assay with Mythimna separata [1], 30.8% with Mythimna separata [2], 50% in the assay with Mythimna separata [3] and “tde” in the assay with Mythimna separata [5].
Regarding `CC(=O)O[C@@H]1C[C@H](O)[C@@]23CO[C@H](OC(=O)c4ccccc4)[C@]1(C)[C@@H]2C[C@@H](O)[C@]1(C)[C@@H]3C(=O)[C@H](OC(C)=O)[C@@]2(C)C(c3ccoc3)C[C@H]3O[C@@]312` (single isomer, unassigned), the Activity with Mythimna separata [1] was 20.7%; in the assay with Mythimna separata [2], 23.1%; with Mythimna separata [3] it was 46.2%; in the assay on Mythimna separata [5], “tde”. The result in the assay with Mythimna separata [4] was Active.
For `CC(=O)O[C@@H]1C[C@H](O)[C@@]23CO[C@H](OC(=O)c4ccc([N+](=O)[O-])cc4)[C@]1(C)[C@@H]2C[C@@H](O)[C@]1(C)[C@@H]3C(=O)[C@H](OC(C)=O)[C@@]2(C)C(c3ccoc3)C[C@H]3O[C@@]312` (single isomer, unassigned), the Activity in the assay on Mythimna separata [1] was 24.2%; in the assay on Mythimna separata [2], 26.9%; with Mythimna separata [3], 42.3%; in the assay on Mythimna separata [5], “tde”. For the same molecule, the outcome in the assay on Mythimna separata [4] was Active.
Regarding `CC(=O)O[C@@H]1C[C@H](O)[C@@]23CO[C@H](OC(=O)/C=C/c4ccccc4)[C@]1(C)[C@@H]2C[C@@H](O)[C@]1(C)[C@@H]3C(=O)[C@H](OC(C)=O)[C@@]2(C)C(c3ccoc3)C[C@H]3O[C@@]312` (single isomer, unassigned), the Activity with Mythimna separata [1] was 20.7%; in the assay with Mythimna separata [2], 38.5%; with Mythimna separata [3], 61.5%; in the assay on Mythimna separata [5], “tde”. In addition, the result in the assay on Mythimna separata [7] was Active.
`CC(=O)O[C@H]1OC[C@@]23[C@H]4C(=O)[C@H](OC(C)=O)[C@@]5(C)C(c6ccoc6)C[C@H]6O[C@]65[C@]4(C)[C@H](O)C[C@H]2[C@]1(C)[C@H](OC(C)=O)C[C@@H]3O` (single isomer, unassigned): the Activity is 24.1% in the assay with Mythimna separata [1], 26.9% in the assay with Mythimna separata [2], 50% with Mythimna separata [3] and “tde” with Mythimna separata [5]. Further, the outcome in the assay with Mythimna separata [6] and in the assay on Mythimna separata [7] was Active.
For the molecule `CC(=O)O[C@@H]1C[C@H](O)[C@@]23CO[C@H](OC(=O)Cc4ccccc4)[C@]1(C)[C@@H]2C[C@@H](O)[C@]1(C)[C@@H]3C(=O)[C@H](OC(C)=O)[C@@]2(C)C(c3ccoc3)C[C@H]3O[C@@]312` (single isomer, unassigned), the Activity was 24.1% with Mythimna separata [1], 26.9% in the assay with Mythimna separata [2], 42.3% with Mythimna separata [3] and “tde” in the assay on Mythimna separata [5].
Consider `CC(=O)O[C@@H]1C[C@H](O)[C@@]23CO[C@H](OC(=O)c4cccc(Cl)c4)[C@]1(C)[C@@H]2C[C@@H](O)[C@]1(C)[C@@H]3C(=O)[C@H](OC(C)=O)[C@@]2(C)C(c3ccoc3)C[C@H]3O[C@@]312` (single isomer, unassigned), for which the Activity with Mythimna separata [1] was 27.6%; in the assay with Mythimna separata [2], 34.6%; with Mythimna separata [3], 46.2%; in the assay on Mythimna separata [5], “tde”. Also, in the assay on Mythimna separata [4], the result was Active.
With `CC(=O)O[C@@H]1C[C@H](O)[C@@]23CO[C@H](OC(=O)c4ccccc4Cl)[C@]1(C)[C@@H]2C[C@@H](O)[C@]1(C)[C@@H]3C(=O)[C@H](OC(C)=O)[C@@]2(C)C(c3ccoc3)C[C@H]3O[C@@]312` (single isomer, unassigned), the Activity was 20.7% with Mythimna separata [1], 23.1% in the assay with Mythimna separata [2], 38.5% with Mythimna separata [3] and “tde” with Mythimna separata [5]. For the same molecule, the outcome in the assay with Mythimna separata [6] and in the assay on Mythimna separata [4] was Active.
